We go through one substance from patent US4457917A, “Peptide, process for its preparation and pharmaceutical composition containing same” (Max-Planck-Gesellschaft zur Foerderung der Wissenschaften …, priority 1981, dated 1984).

Assay [1] has as its system Hydra. As to the kind of experiment: Head-specific determination in Hydra (interstitial parent cell determined to the nerve cell). The assay is classed as in vivo.
Assay [2] can be described thus: Blood pressure effect upon intraventricular administration. Format: in vivo. Conditions: mammals.
In another assay the test system is embryonal brain cells. Put plainly: Growth-stimulating action on embryonal brain cells. Conditions: mammals. The assay is classed as cell-based.
The test system of assay [3] is Hydra. Put plainly: Mitogen action on cell division in Hydra. The assay is classed as in vivo.

Non-standard residues stand in square brackets, D forms with d. No end group written: not given here. pGlu = O=C1CC[C@@H](C(=O)O)N1

With “[pGlu]PPGGSKVILF [peptide of the invention]”, in the assay with Hydra [1], the head-specific determination result was “responsible for head-specific determination”. Besides, the “concentration at which the effect occurs (head-specific determination)” value in the assay on Hydra [1] (order of magnitude) is listed as ~10^-10 M. The “effect on blood pressure” value in assay [2] was “hypertensive (pressor) effect”. In addition, the “action on growth of embryonal brain cells” value in the assay with embryonal brain cells is recorded as “growth-stimulating action”. The “mitogen action, cell division of all types of cells” value in the assay with Hydra [3] is given as “acts as a mitogen”. Moreover, the “concentration at which the effect occurs (mitogen)” value in the assay with Hydra [3] (order of magnitude) is ~10^-10 M.
